# Experimental data from patent publication US10363263B2, “Anti-aging compositions and methods for using same” (Prescient Pharma LLC, priority 2015, dated 2019).
# Experiments:
# [1] = system: normal human colon fibroblast cell line CCD 841 CoN (CRL-1790, ATCC); assay: Senescence beta-galactosidase staining of aged normal human colon fibroblasts (Examples 1 and 2); type: cell-based; details: 48 hours; for effect on beta-galactosidase staining in comparison with non-treated controls: monotherapy, 0.15 μM lithium carbonate or 0.25 mM glycyrrhizic acid; for visible positive beta-galactosidase staining (FIGS. 1-4): visual, light microscope 100×, 0.15 μM lithium carbonate and/or 0.25 mM glycyrrhizic acid
# Protocol: Aging-associated beta-galactosidase is widely used as a biomarker of senescence. Here we investigated senescence-associated-beta-galactosidase activity of human colon fibroblast cells by visual assessment.
# In this Example, the effect of treatment with lithium and glycyrrhizic acid separately, and as a fixed combination, was evaluated on normal human colon fibroblast cell line CCD 841 CoN (CRL-1790, ATCC).
# Group 4 (flasks 10-12, control), the medium was changed to fresh compete EMEM medium without drugs as controls.
# FIGS. 1-4 show pictures of the staining results for each of the groups, respectively.
# Digital pictures showing the staining results for each of the 12 flasks were then independently examined and scored for percentage of area of green (positive) staining based on pixels, with and without background subtraction.
# Higher values reflect more intensive green staining which corresponds to more aged cells.
# Group#9 contained complete EMEM medium with glycyrrhizic acid 0.25 mM.
# Group#10 contained complete EMEM medium only and was used as a control.
# FIGS. 6-15 show pictures of the staining results for each of the groups, respectively.
# [2] = system: wild-type N2 Bristol strain of C. elegans; assay: C. elegans longevity study (Example 4); type: in vivo; details: for longevity effect: monotherapy; for Restricted mean Days (survival): control 15.53
# Protocol: In this fourth Example, the effect of treatment with lithium and Glycyrrhizic acid separately, and as a fixed combination, was further evaluated on the wild-type N2 Bristol strain of C. elegans. Worm stocks were maintained on nematode growth medium (NGM) dishes containing 10 μg/mL cholesterol (Cat. No. C8667; Sigma-Aldrich, Saint Louis, Mo., USA). Dishes were seeded with OP50 Escherichia coli as a food source. Twelve polystyrene petri dishes (35 mm diameter) were prepared by filling with NGM agar containing […] cholesterol, and 25 μM 5-Fluoro-2′-deoxyuridine to suppress reproduction (FUDR; Cat. No. F0503; Sigma-Aldrich, Saint Louis, Mo., USA). The dishes were seeded with OP50 Escherichia coli as a food source. Duplicate dishes were used for each group. The treatment drug was dissolved in deionized water, and added to the dishes for the groups as explained below: […] Group#5: Glycyrrhizic acid in concentration of 0.25 mM Group#6: untreated (control) NGM-agar treatment plates containing cholesterol (10 μg/mL) and 25 μM 5-Fluoro-2′-deoxyuridine (FUDR; Cat. No. F0503; Sigma-Aldrich, Saint Louis, Mo., USA) to suppress reproduction. […] The survival data for the various groups are also depicted in FIG. 17.
# [3] = lithium carbonate 15 or 0.15 μM as in the label, Ga = glycyrrhizic acid 0.25 mM
# [4] = lithium carbonate 15 or 0.15 μM as in the label, Ga = glycyrrhizic acid 0.25 mM, listed as Li0.15 uM
# [5] = lithium carbonate 15 or 0.15 μM as in the label, Ga = glycyrrhizic acid 0.25 mM, listed as Li15 uM
smiles,measurement,setting,value
"CC1(C)[C@@H](O[C@H]2O[C@H](C(=O)O)[C@@H](O)[C@H](O)[C@H]2O[C@@H]2O[C@H](C(=O)O)[C@@H](O)[C@H](O)[C@H]2O)CC[C@]2(C)[C@H]3C(=O)C=C4[C@@H]5C[C@@](C)(C(=O)O)CC[C@]5(C)CC[C@@]4(C)[C@]3(C)CC[C@@H]12 [glycyrrhizic acid, (3β,20β)-20-carboxy-11-oxo-30-norolean-12-en-3-yl 2-O-β-D-glucopyranuronosyl-α-D-glucopyranosiduronic acid]",effect on beta-galactosidase staining in comparison with non-treated controls,[1],did not appear to have significant effect
same,visible positive beta-galactosidase staining (FIGS. 1-4),[1],stained positively
same,Age in days at 100% mortality,[2]; [3],20 days
same,longevity effect,[2],not observed
O=C([O-])[O-].[Li+].[Li+] [lithium carbonate],effect on beta-galactosidase staining in comparison with non-treated controls,[1],did not appear to have significant effect
same,visible positive beta-galactosidase staining (FIGS. 1-4),[1],stained positively
same,Age in days at 50% mortality,[2]; [3],15 days
same,Age in days at 75% mortality,[2]; [3],16 days
same,Age in days at 90% mortality,[2]; [3],18 days
same,Age in days at 100% mortality,[2]; [3],19 days
same,Restricted mean Days (survival),[2]; [4],14.88 days
same,Restricted mean Days (survival),[2]; [5],14.56 days
same,Age in days at 25% mortality,[2]; [4],13 days
same,Age in days at 25% mortality,[2]; [5],14 days
same,longevity effect,[2],not observed
